In patent US20250230171A1 (MOMA Therapeutics, Inc., priority 2023, published 2025):
pIC50: −log10 of the molar value. Where two headings read alike, the source gives them in different places.

How the values were obtained:
[1] = system: DLD1 WT cells; assay: 7-day cell viability assay (CellTiter-Glo), DLD1 parental (WT); assay type: cell-based, human; details: Homo sapiens, DLD-1, 168 h, n=2
[2] = system: DLD1 BRCA2 (−/−) cells; assay: 7-day cell viability assay (CellTiter-Glo), DLD1 BRCA2 (−/−); assay type: cell-based, human; details: Homo sapiens, DLD-1, 168 h, n=2, read-out: Viability IC50 (uM) DLD1 BRCA2 null
Procedure, shortened: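 7-day growth assay in DLD1 cells with or without BRCA2; seeding densities chosen to keep log-linear growth. Compound: 10 uM top, 3-fold, 9 points. Endpoint: CTG ATP luminescence at RT.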

[3] = biological target: biotinylated Avi-POLθ[2-894] (Homo sapiens (Human), UniProt O75417); assay: POLθ ATPase assay (ADP-Glo); details: n=2, read-out: Biochemical ATPase ADPGlo IC50
Sequence of biotinylated Avi-POLθ[2-894] (O75417 2-894): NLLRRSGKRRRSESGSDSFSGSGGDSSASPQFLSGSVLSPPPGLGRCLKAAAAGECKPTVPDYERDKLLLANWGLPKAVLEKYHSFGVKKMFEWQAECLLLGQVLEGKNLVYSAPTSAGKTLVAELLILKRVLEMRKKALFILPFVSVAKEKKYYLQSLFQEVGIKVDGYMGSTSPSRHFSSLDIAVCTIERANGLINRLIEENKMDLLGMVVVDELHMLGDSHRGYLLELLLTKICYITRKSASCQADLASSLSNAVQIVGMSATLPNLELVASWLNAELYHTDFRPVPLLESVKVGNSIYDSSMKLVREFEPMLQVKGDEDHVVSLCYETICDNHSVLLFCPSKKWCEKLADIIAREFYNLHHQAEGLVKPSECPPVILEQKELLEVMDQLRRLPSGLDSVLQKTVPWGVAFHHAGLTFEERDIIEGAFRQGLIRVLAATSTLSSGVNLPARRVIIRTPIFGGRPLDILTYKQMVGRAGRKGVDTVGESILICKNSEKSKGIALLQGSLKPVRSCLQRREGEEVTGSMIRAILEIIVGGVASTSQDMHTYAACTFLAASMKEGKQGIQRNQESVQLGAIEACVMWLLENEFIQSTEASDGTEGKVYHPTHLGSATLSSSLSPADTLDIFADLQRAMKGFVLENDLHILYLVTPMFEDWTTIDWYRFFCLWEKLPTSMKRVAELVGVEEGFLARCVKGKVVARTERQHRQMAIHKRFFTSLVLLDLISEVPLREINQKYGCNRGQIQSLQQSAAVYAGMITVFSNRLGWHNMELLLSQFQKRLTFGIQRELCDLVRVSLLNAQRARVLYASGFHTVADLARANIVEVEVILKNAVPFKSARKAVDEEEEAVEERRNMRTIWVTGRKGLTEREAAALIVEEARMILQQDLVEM

Structure (SMILES)	IC50 ([1]; 7-day CellTiter-Glo) [µM]	IC50 ([2]; 7-day CellTiter-Glo) [µM]	pIC50 ([3]; POLθ ATPase, ADP-Glo)	IC50 ([1]; 7-day viability) [µM]	IC50 ([2]; 7-day viability) [µM]	pIC50 [3]
COc1cnc(Cl)cc1-c1cc(C)ncc1C(=O)Nc1nc2c(s1)C(C)N(C(=O)c1ccc(C(F)(F)F)nc1OC)C2 (single isomer, unassigned) [Example 1046, (R or S)-2′-chloro-5′-methoxy-N-(5-(2-methoxy-6-(trifluoromethyl)nicotinoyl)-6-methyl-5,6-dihydro-4H-pyrrolo[3,4-d]thiazol-2-yl)-6-methyl-[4,4′-bipyridine]-3-carboxamide]	≥ 10	0.001 to 0.1	7.82 to 9.00	–	–	–
COc1cnc(Cl)cc1-c1cc(C)ncc1C(=O)Nc1nc2c(s1)CN(C(=O)c1ccc(C(F)(F)F)c(Cl)n1)C2	≥ 10	0.001 to 0.1	7.82 to 9.00	–	–	–
COc1cnc(Cl)cc1-c1cc(C)ncc1C(=O)Nc1nc2c(s1)CN(C(=O)c1c(Cl)ccnc1OC)C2 [Example 460]	5 to 10	0.001 to 0.1	7.82 to 9.00	–	–	–
CCc1cc(C(=O)N2Cc3nc(NC(=O)c4cnc(C)cc4-c4cc(Cl)ncc4OC)sc3C2)nn1C [Example 58, 2′-chloro-N-(5-(5-ethyl-1-methyl-1H-pyrazole-3-carbonyl)-5,6-dihydro-4H-pyrrolo[3,4-d]thiazol-2-yl)-5′-methoxy-6-methyl-[4,4′-bipyridine]-3-carboxamide]	–	–	–	≥ 10	0.001 to 0.1	7.82 to 9.00
COc1cnc(Cl)cc1-c1cc(C)ncc1C(=O)Nc1nc2c(s1)CN(C(=O)c1c(C)cnn1C)C2 [Example 81, 2′-chloro-N-(5-(1,4-dimethyl-1H-pyrazole-5-carbonyl)-5,6-dihydro-4H-pyrrolo[3,4-d]thiazol-2-yl)-5′-methoxy-6-methyl-[4,4′-bipyridine]-3-carboxamide]	–	–	–	≥ 10	0.001 to 0.1	7.82 to 9.00
COc1cnc(Cl)cc1-c1cc(C)ncc1C(=O)Nc1nc2c(s1)CN(C(=O)[C@H]1C[C@H](C(F)(F)F)C1)C2 [Example 164, 4-(5-Cyano-2-methoxyphenyl)-6-methyl-N-(5-(pyridin-3-ylsulfonyl)-5,6-dibydro-4H-pyrrolo[3,4-d]thiazol-2-yl)nicotinamide]	–	–	–	≥ 10	0.1 to 0.25	7.82 to 9.00
COc1cnc(Cl)cc1-c1cc(C)ncc1C(=O)Nc1nc2c(s1)CN(C(=O)c1cnc(C(F)F)nc1)C2	≥ 10	0.001 to 0.1	7.82 to 9.00	–	–	–
COc1cnc(Cl)cc1-c1cc(C)ncc1C(=O)Nc1nc2c(s1)CN(C(=O)c1c(Cl)cnn1C(C)C)C2	–	–	–	≥ 10	0.001 to 0.1	7.82 to 9.00
COc1ccc(C#N)cc1-c1cc(C)ncc1C(=O)Nc1nc2c(s1)CN(S(=O)(=O)N1CCCC1)C2	–	–	–	≥ 10	0.5 to 2	7.82 to 9.00
COc1cccc(C(=O)N2Cc3nc(NC(=O)c4cnc(C)cc4-c4cc(Cl)ncc4OC)sc3C2)n1	2 to 5	0.001 to 0.1	7.82 to 9.00	–	–	–
COc1cnc(Cl)cc1-c1cc(C)ncc1C(=O)Nc1nc2c(s1)CN(C(=O)c1cc(C(F)F)ccn1)C2 [Example 94, 2′-chloro-N-(5-(4-(difluoromethyl)picolinoyl)-5,6-dihydro-4H-pyrrolo[3,4-d]thiazol-2-yl)-5′-methoxy-6-methyl-[4,4′-bipyridine]-3-carboxamide]	–	–	–	≥ 10	0.001 to 0.1	7.82 to 9.00
COc1cnc(Cl)cc1-c1cc(C)ncc1C(=O)Nc1nc2c(s1)CN(C(=O)[C@H]1C[C@@H](OC(F)F)C1)C2 [Example 10, 2′-chloro-N-(5-((1s,3s)-3-(difluoromethoxy)cyclobutane-1-carbonyl)-5,6-dihydro-4H-pyrrolo[3,4-d]thiazol-2-yl)-5′-methoxy-6-methyl-[4,4′-bipyridine]-3-carboxamide]	–	–	–	≥ 10	0.001 to 0.1	7.82 to 9.00
COc1cnc(Cl)cc1-c1cc(C)ncc1C(=O)Nc1nc2c(s1)CN(C(=O)c1nn(C)c(C)c1Cl)C2 [Example 74, 2′-chloro-N-(5-(4-chloro-1,5-dimethyl-1H-pyrazole-3-carbonyl)-5,6-dihydro-4H-pyrrolo[3,4-d]thiazol-2-yl)-5′-methoxy-6-methyl-[4,4′-bipyridine]-3-carboxamide]	–	–	–	0.001 to 0.5	0.001 to 0.1	7.82 to 9.00
COc1ccc(C#N)cc1-c1cc(C)ncc1C(=O)Nc1nc2c(s1)CN(C(=O)c1ccc(C(F)F)c(F)c1)C2	≥ 10	0.001 to 0.1	7.82 to 9.00	–	–	–
COc1cnc(Cl)cc1-c1cc(C)ncc1C(=O)Nc1nc2c(s1)CN(C(=O)C1CCC(OC(F)F)C1)C2 (stereo not drawn)	–	–	–	≥ 10	0.001 to 0.1	7.82 to 9.00
COc1cnc(Cl)cc1-c1cc(C)ncc1C(=O)Nc1nc2c(s1)CN(C(=O)c1cc(C)nn1C(F)F)C2	–	–	–	≥ 10	0.1 to 0.25	7.82 to 9.00
COc1cnc(Cl)cc1-c1cc(C)ncc1C(=O)Nc1nc2c(s1)CN(C(=O)[C@H]1C[C@@H](C#N)C1)C2 [Example 190]	–	–	–	≥ 10	0.25 to 0.5	7.82 to 9.00
COc1cnc(Cl)cc1-c1cc(C)ncc1C(=O)Nc1nc2c(s1)CN(C(=O)c1ncc(Cl)cn1)C2 [Example 35, 2′-chloro-N-(5-(5-chloropyrimidine-2-carbonyl)-5,6-dihydro-4H-pyrrolo[3,4-d]thiazol-2-yl)-5′-methoxy-6-methyl-[4,4′-bipyridine]-3-carboxamide]	–	–	–	2 to 5	0.001 to 0.1	7.82 to 9.00

Structure (SMILES)	IC50 ([1]; 7-day CellTiter-Glo) [µM]	IC50 ([2]; 7-day CellTiter-Glo) [µM]	pIC50 ([3]; POLθ ATPase, ADP-Glo)	IC50 ([1]; 7-day viability) [µM]	IC50 ([2]; 7-day viability) [µM]	pIC50 [3]
COc1cnc(Cl)cc1-c1cc(C)ncc1C(=O)Nc1nc2c(s1)CN(C(=O)c1c(OC)cnn1C)C2 [Example 146]	–	–	–	≥ 10	0.001 to 0.1	7.82 to 9.00
COc1ccc(C#N)cc1-c1cc(C)ncc1C(=O)Nc1nc2c(s1)CN(S(=O)(=O)N1CCCCC1)C2	–	–	–	≥ 10	0.5 to 2	7.82 to 9.00
COc1cnc(Cl)cc1-c1cc(C)ncc1C(=O)Nc1nc2c(s1)CN(C(=O)c1ccncc1)C2	–	–	–	≥ 10	0.25 to 0.5	7.82 to 9.00
COc1ccc(C#N)cc1-c1cc(C)ncc1C(=O)Nc1nc2c(s1)CN(S(=O)(=O)C1CC1)C2	–	–	–	≥ 10	≥ 2	7.30 to 7.82
COc1ccc(C#N)cc1-c1cc(C)ncc1C(=O)Nc1nc2c(s1)CN(C(=O)[C@H]1C[C@@H](C#N)C1)C2	–	–	–	≥ 10	≥ 2	7.82 to 9.00
COc1cnc(Cl)cc1-c1cc(C)ncc1C(=O)Nc1nc2c(s1)CN(C(=O)C1CC3(CC(O)C3)C1)C2 (stereo not drawn) [Example 148]	–	–	–	≥ 10	0.1 to 0.25	7.82 to 9.00
COc1cnc(Cl)cc1-c1cc(C)ncc1C(=O)Nc1nc2c(s1)CN(C(=O)c1ncc(C(F)(F)F)cc1OC)C2 [Example 38, 2′-chloro-5′-methoxy-N-(5-(3-methoxy-5-(trifluoromethyl)picolinoyl)-5,6-dihydro-4H-pyrrolo[3,4-d]thiazol-2-yl)-6-methyl-[4,4′-bipyridine]-3-carboxamide]	–	–	–	≥ 10	0.001 to 0.1	7.82 to 9.00
COc1ccc(C#N)cc1-c1cc(C)ncc1C(=O)Nc1nc2c(s1)CN(C(=O)c1cccnc1OC)C2 (racemic) [Example 127]	–	–	–	≥ 10	0.001 to 0.1	7.82 to 9.00
COc1cnc(Cl)cc1-c1cc(C)ncc1C(=O)Nc1nc2c(s1)CC(Nc1ccc(O)cc1)CC2 (stereo not drawn) [Example 135]	–	–	–	5 to 10	0.5 to 2	7.82 to 9.00
COc1cnc(Cl)cc1-c1cc(C)ncc1C(=O)Nc1nc2c(s1)CN(C(=O)c1ccc(OC)c(C(F)F)n1)C2	≥ 10	0.001 to 0.1	7.82 to 9.00	–	–	–
COc1cnc(Cl)cc1-c1cc(C)ncc1C(=O)Nc1nc2c(s1)CN(C(=O)C1CCC(C(F)F)CC1)C2 (stereo not drawn) [Example 406, (Cis and trans) 2′-chloro-N-(5-(4-(difluoromethyl)cyclohexane-1-carbonyl)-5,6-dihydro-4H-pyrrolo[3,4-d]thiazol-2-yl)-5′-methoxy-6-methyl-[4,4′-bipyridine]-3-carboxamide]	≥ 10	0.001 to 0.1	7.82 to 9.00	–	–	–
COc1cnc(Cl)cc1-c1cc(C)ncc1C(=O)Nc1nc2c(s1)CN(C(=O)c1ccc(F)c(C(F)F)c1)C2	5 to 10	0.001 to 0.1	7.82 to 9.00	–	–	–
COc1cnc(Cl)cc1-c1cc(C)ncc1C(=O)Nc1nc2c(s1)CN(C(=O)c1cnn(C)c1C(F)(F)F)C2 [Example 84, 2′-chloro-5′-methoxy-6-methyl-N-(5-(1-methyl-5-(trifluoromethyl)-1H-pyrazole-4-carbonyl)-5,6-dihydro-4H-pyrrolo[3,4-d]thiazol-2-yl)-[4,4′-bipyridine]-3-carboxamide]	–	–	–	≥ 10	0.001 to 0.1	7.82 to 9.00
COc1ccc(C#N)cc1-c1cc(C)ncc1C(=O)Nc1nc2c(s1)CN(S(=O)(=O)NCC(F)(F)F)C2	–	–	–	≥ 10	≥ 2	7.82 to 9.00
COc1cnc(Cl)cc1-c1cc(C)ncc1C(=O)Nc1nc2c(s1)CN(C(=O)c1cnc(OC)c(Cl)c1)C2	5 to 10	0.001 to 0.1	7.82 to 9.00	–	–	–
COc1ccc(C#N)cc1-c1cc(C)ncc1C(=O)Nc1nc2c(s1)CN(C(=O)c1cc(C)ccn1)C2	–	–	–	≥ 10	0.5 to 2	7.82 to 9.00
COc1cnc(Cl)cc1-c1cc(C)ncc1C(=O)Nc1nc2c(s1)CN(C(=O)[C@@H]1C[C@H]1C(F)F)C2 [Example 3, 2′-chloro-N-(5-((1R,2R)-2-(difluoromethyl)cyclopropane-1-carbonyl)-5,6-dihydro-4H-pyrrolo[3,4-d]thiazol-2-yl)-5′-methoxy-6-methyl-[4,4′-bipyridine]-3-carboxamide]	–	–	–	2 to 5	0.001 to 0.1	7.82 to 9.00
